Data: patent publication US5302610A, “Renal-selective biphenylmethyl imidazole angiotensin II antagonists for treatment of hypertension” (G. D. Searle & Co., priority 1991, dated 1994)

How the values were obtained:
[1] = biological target: smooth muscle angiotensin II receptor; experiment: Assay A: Angiotensin II Binding Activity; details: rat uterine membranes, 25° C., 60 min; read-out: Assay A IC50 (50% displacement of specifically bound 125I-AII)
Experimental: Other chemicals were obtained from Sigma Chemical Co. This assay was carried out according to the method of Douglas et al [Endocrinology, 106, 120-124 (1980)]. Rat uterine membranes were prepared from fresh tissue. All procedures were carried out at 4° C. Uteri were stripped of fat and homogenized in phosphate-buffered saline at pH 7.4 containing 5 mM EDTA. The homogenate was centrifuged at 1500×g for 20 min., and the supernatant was recentrifuged at 100,000×g for 60 min. The pellet was resuspended in buffer consisting of 2 mM EDTA and 50 mM Tris-HCl (pH 7.5) to a final protein concentration of 4 mg/ml. […] The reaction was initiated by the addition of membrane protein and the mixture was incubated at 25° C. for 60 min. The incubation was terminated with ice-cold 50 mM Tris-HCl (pH 7.5) and the mixture was filtered to separate membrane-bound labelled peptide from the free ligand. The incubation tube and filter were washed with ice-cold buffer. Filters were assayed for radioactivity in a Micromedic gamma counter. Nonspecific binding was defined as binding in the presence of 10 μM of unlabelled AII. Specific binding was calculated as total binding minus nonspecific binding. […] Binding data were analyzed by a nonlinear least-squares curve fitting program.

[2] = system: AII receptor; experiment: Assay C: In Vivo Intravenous Pressor Assay Response for AII Antagonists; set-up: species or system male Sprague-Dawley rats, ganglion-blocked
Experimental: The in vivo AII receptor antagonist activity of Example #5 compound was examined in ganglion-blocked male Sprague-Dawley rats (Harlan Sprague-Dawley, Inc.), weighing 300-400 g, anesthetized with 100 mg/kg i.p. Inactin. Catheters (PE-50) were implanted in a femoral artery and vein to measure mean arterial pressure and to administer compounds, respectively. A tracheal catheter maintained airway patency. For intravenous experiments, autonomic neurotransmission was blocked by treatment with mecamylamine (3 mg/kg i.v.) and atropine (400 μg/kg i.v.). AII (30 ng/kg i.v., 20-25 μl volume) was administered four times at 10 minute intervals to establish a reproducible control pressor response. Example #5 compound was then administered at 1, 3 and 10 mg/kg in separate groups of rats as an intravenous bolus (0.2 ml volume) before rechallenging with AII (30 ng/kg, 20-25 μl volume) for the following 2 hours. For intraduodenal experiments, rats were anesthetized as above, but ganglion blockade was not performed. AII was administered at 100 ng/kg i.v. (20-25 μl volume), and was administered at 10, 30 and 100 mg/kg in separate groups of rats as an intraduodenal bolus (0.2 ml volume). Angiotensin II injections were then given 5, 10, 20, 30, 45, 60, 75, 90, and 120 minutes after administration of the test compound and response of arterial pressure was monitored. The response to AII was calculated as percent of the control response and then the percent inhibition was calculated as 100 minus the percent control response. Duration of action of a test compound was defined as the time from peak percent inhibition to 50% of peak. The test compound was tested in two rats and the values for the two rats were averaged.

[3] = system: response to angiotensin II (urinary sodium excretion); experiment: Assay E: Urinary Sodium Excretion, acute administration with AII infusion; assay type: in vivo, male Sprague-Dawley rats, conscious; details: for Urinary Sodium Excretion: means±SE
Experimental: antagonist compound (Ex. #5) and a glutamyl conjugate (Ex. #81) of the Ex. #5 AII antagonist compound to determine the renal selectivity of the conjugate. Male Sprague-Dawley rats (300-350 g body weight) had catheters implanted into the femoral artery and vein under chloral hydrate anesthesia (400 mg/kg, i.p.). After 2 to 4 days of recovery, on the experimental day, a urinary bladder catheter was implanted under methohexital anesthesia (50 mg/kg, i.p.). Rats were placed in a restraint device to allow for urine collection and mean arterial pressure measurements. After 1-2 hours of recovery, in conscious rats, an isotonic saline infusion (50 μl/min) was started and continued for the duration of the experiment. After one hour equilibration to the saline infusion, a 20 minute control urine and mean arterial pressure collection were obtained. Then angiotensin II was infused at 20 ng/min for 25 minutes. After 5 minutes of angiotensin II infusion, a 20 minute experimental collection was made. Finally, 5 minutes after the end of angiotensin II infusion, a 20 minute recovery collection was obtained. In separate groups of rats, vehicle (0.3 ml isotonic saline, i.v. bolus), Example #5 angiotensin II antagonist compound (100 mg/kg, i.v. bolus), or Example #81 conjugate (100 mg/kg, i.v. bolus) was administered 1-2 minutes prior to onset of angiotensin II infusion. […] Results are shown in Tables XIII and XIV and also in FIGS. 3 and 4. Data are presented as means±SE. Repeated measures analysis of variance was used for main effects and interactions and Tukey's HSD test was used for pairwise comparisons among means. Statistical significance was defined as p<0.05.

## CCCCc1nc(Cl)c(CO)n1Cc1ccc(-c2ccccc2C(=O)O)cc1 [Example 5]
[1]
  IC50: 216 ± 45 nM
[2]; 1 mg/kg i.v., 1 min
  % Control of AII Pressor Response: 80%
[2]; 1 mg/kg i.v., 5 min
  % Control of AII Pressor Response: 85%
[2]; 1 mg/kg i.v., 10 min
  % Control of AII Pressor Response: 92%
[2]; 1 mg/kg i.v., 20 min
  % Control of AII Pressor Response: 90%
[2]; 1 mg/kg i.v., 30 min
  % Control of AII Pressor Response: 88%
[2]; 1 mg/kg i.v., 40 min
  % Control of AII Pressor Response: 86%
[2]; 1 mg/kg i.v., 50 min
  % Control of AII Pressor Response: 86%
[2]; 1 mg/kg i.v., 60 min
  % Control of AII Pressor Response: 89%
[2]; 1 mg/kg i.v., 75 min
  % Control of AII Pressor Response: 93%
[2]; 1 mg/kg i.v., 90 min
  % Control of AII Pressor Response: 95%
[2]; 1 mg/kg i.v., 120 min
  % Control of AII Pressor Response: 100%
[2]; 3 mg/kg i.v., 1 min
  % Control of AII Pressor Response: 39%
[2]; 3 mg/kg i.v., 5 min
  % Control of AII Pressor Response: 55%
[2]; 3 mg/kg i.v., 10 min
  % Control of AII Pressor Response: 63%
[2]; 3 mg/kg i.v., 20 min
  % Control of AII Pressor Response: 68%
[2]; 3 mg/kg i.v., 30 min
  % Control of AII Pressor Response: 74%
[2]; 3 mg/kg i.v., 40 min
  % Control of AII Pressor Response: 75%
[2]; 3 mg/kg i.v., 50 min
  % Control of AII Pressor Response: 75%
[2]; 3 mg/kg i.v., 60 min
  % Control of AII Pressor Response: 81%
[2]; 3 mg/kg i.v., 75 min
  % Control of AII Pressor Response: 88%
[2]; 3 mg/kg i.v., 90 min
  % Control of AII Pressor Response: 92%
[2]; 3 mg/kg i.v., 120 min
  % Control of AII Pressor Response: 98%
[2]; 10 mg/kg i.v., 1 min
  % Control of AII Pressor Response: 4%
[2]; 10 mg/kg i.v., 5 min
  % Control of AII Pressor Response: 16%
[2]; 10 mg/kg i.v., 10 min
  % Control of AII Pressor Response: 23%
[2]; 10 mg/kg i.v., 20 min
  % Control of AII Pressor Response: 31%
[2]; 10 mg/kg i.v., 30 min
  % Control of AII Pressor Response: 40%
[2]; 10 mg/kg i.v., 40 min
  % Control of AII Pressor Response: 47%
[2]; 10 mg/kg i.v., 50 min
  % Control of AII Pressor Response: 51%
[2]; 10 mg/kg i.v., 60 min
  % Control of AII Pressor Response: 60%
[2]; 10 mg/kg i.v., 75 min
  % Control of AII Pressor Response: 71%
[2]; 10 mg/kg i.v., 90 min
  % Control of AII Pressor Response: 80%
[2]; 10 mg/kg i.v., 120 min
  % Control of AII Pressor Response: 96%
[3]; 100 mg/kg i.v. bolus, Recovery after AII infusion
  Urinary Sodium Excretion: 2.6 ± 0.7 μEq/min/100 g BW
[3]; 100 mg/kg i.v. bolus, during AII infusion 20 ng/min, * in table
  Urinary Sodium Excretion: 2.5 ± 1.1 μEq/min/100 g BW
[3]; 100 mg/kg, i.v. bolus, AII 20 ng/min
  antinatriuretic (urinary sodium excretion) response to angiotensin II: prevented both responses to angiotensin II
[3]; Control period (before dosing)
  Urinary Sodium Excretion: 2.4 ± 0.5 μEq/min/100 g BW
